Assay results taken from PubChem BioAssay (NCI).
“And” between values parts separate entries of the source, which are not always exact repeats. Equal entries are not always repeated.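 Following 48 hours of exposure in 96-well plates, responses at five concentrations were used to interpolate endpoints linearly. GI50: concentration for 50% inhibition of growth. Definition used: TGI = concentration required for complete inhibition of growth.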

Experiments:
Experiment in all cases: NCI tumour cell line growth inhibition, 48 h
HL-60(TB) leukemia = system: HL-60(TB) leukemia
CCRF-CEM leukemia = system: CCRF-CEM leukemia
SF-539 CNS = system: SF-539 CNS
K-562 leukemia = system: K-562 leukemia
HOP-92 NSCLC = system: HOP-92 NSCLC
SN12C renal = system: SN12C renal
SF-295 CNS = system: SF-295 CNS
A549 NSCLC = system: A549 NSCLC
SF-268 CNS = system: SF-268 CNS
BT-549 breast = system: BT-549 breast

SMILES	TGI (HL-60(TB) leukemia)	TGI (CCRF-CEM leukemia) [µM]	TGI (SF-539 CNS) [µM]	TGI (K-562 leukemia) [µM]	TGI (HOP-92 NSCLC)	TGI (SN12C renal) [µM]	TGI (SF-295 CNS) [µM]	TGI (A549 NSCLC) [µM]	TGI (SF-268 CNS) [µM]	TGI (BT-549 breast)	GI50 (HL-60(TB) leukemia)	GI50 (CCRF-CEM leukemia)	GI50 (SF-539 CNS) [µM]	GI50 (K-562 leukemia)	GI50 (HOP-92 NSCLC)	GI50 (SN12C renal) [µM]	GI50 (SF-295 CNS) [nM]	GI50 (A549 NSCLC) [µM]	GI50 (SF-268 CNS) [µM]	GI50 (BT-549 breast)
COc1ccccc1C(=O)Nc1ccc(Cl)c(C(=O)OC(C)C)c1	> 65.2 µM	> 92.7	> 100	> 100	> 100 µM	> 100	> 100	> 100	> 95.2	> 100 µM										
COC(=O)[C@]12CC[C@@H](C)[C@H](C)[C@@H]1C1=CC[C@@H]3[C@@]4(C)C(C=O)=C[C@@](C)(COC(=O)c5ccco5)C4=CC[C@@]3(C)[C@]1(C)CC2	5.72 µM	8.73	6.94	17.3	7.71 µM	> 100	8.83	14	9.92	32.4 µM	2.85 µM	2.87 µM	2.57	3.7 µM	671 nM	4.04	2390	3.28	2.93	4.93 µM
Cc1ccc(Nn2c(SCC(=O)Nc3nc(-c4ccccc4)cs3)nc(C)c2C)cc1	39.1 µM		35.2	> 100		14.2	5.89	> 100	> 100	14.1 µM	4.64 µM		4.68	3.62 µM		3.2	1060	3.03	9.1	3.18 µM
Cn1c(=O)c2[nH]c(CCS)nc2n(C)c1=O	> 100 µM	> 100	> 100	> 100	> 100 µM	> 100	> 100	> 100	> 100	> 100 µM										
COc1ccc(-c2cncn2-c2ccc(-c3nc4cc(OC)c(OC)c(OC)c4s3)cc2)cc1N	9.55 µM	> 100	> 100	> 100		> 100	> 100	> 100	> 100	> 100 µM	2.2 µM	3.41 µM	> 100	3.38 µM		9.44	4440	5.77	47	6.21 µM
C=CC(=O)N1CCC(CNc2ncnc(N)c2-c2ccc(Oc3ccccc3)cc2)CC1	46.4 µM	> 100	71	> 100	65.1 µM	> 100	> 100	> 100	> 100	70.1 µM	19.9 µM	27.2 µM	20.6	22.5 µM	18800 nM	25.2	29000	34.3	26.6	20.3 µM
COc1ccc(C#CC2=C(Br)C(=O)OC2)cc1	> 50 µM	> 50	16.8	> 50		16.9	29.1	28.6	> 50	18.3 µM	5.32 µM	3.98 µM	5.15	4.77 µM		8.83	10500	9.43	16.9	8.32 µM
Cn1c(=S)c2[nH]c(SCc3cccnc3)nc2n(C)c1=O	> 100 µM		> 100	> 100	> 100 µM	> 100	> 100	> 100	> 100	> 100 µM										
Nc1ncc(-c2ccc3ncnc(N4CCc5cc(F)c(Cl)cc54)c3c2)cc1C(F)(F)F	> 100 µM	> 100		> 100		> 100	> 100	> 100	> 100	8.33 µM	0.981 µM	2.68 µM		1.61 µM		0.754	2030	1.56	1.24	1.07 µM
CCCCCC/C=C\CCCCCCCCCc1cccc(OC)c1O	> 100 µM	> 100	> 100	> 100		> 100	> 100	> 100	> 100	> 100 µM										
CCN1Cc2c(/C=C/c3ccccc3)nc3ccc(OC)cc3c2N(c2cccc(Cl)c2)C1	5.66 µM	5.84	3.91		3.77 µM	7.82	3.6	3.96	3.67	23 µM	2.08 µM	2.17 µM	1.98		1620 nM	2.43	1690	1.99	1.87	5.73 µM
Clc1ccc2c(NCCNc3nc(N4CCCCC4)nc4ccccc34)ccnc2c1		45.4	3.42		3.24 µM	6.84	3.23	9.87	7.33	4.68 µM		1.99 µM	1.72		1620 nM	2.13	1710	2.16	2.39	2.01 µM
O=C(O)c1ccccc1C(=O)Nc1cc2c(cc1Br)-c1ccccc1C2=O	> 100 µM	> 100	> 100	> 100	> 100 µM	> 100		> 100	> 100	> 100 µM										
COc1ccc2c3c1OC1C4(CCC5C(C2)N(CC2CC2)CCC351)OCCO4 (stereo not drawn)	> 100 µM	> 100		> 100	> 100 µM	> 100	> 100	> 100	> 100	> 100 µM										
CCSc1nnc(-c2ccc3ccccc3c2O)n1-c1ccccc1	> 100 µM		> 100		92.1 µM	> 100			> 100	> 100 µM	> 100 µM		> 100		5000 nM	> 100			8.02	> 100 µM
CC[C@H](C)C(=O)O[C@H]1C[C@@H](C)C=C2C=C[C@H](C)[C@H](CC[C@@H]3C[C@@H](O)CC(=O)O3)[C@H]21	60.6 µM and 50.6 µM and > 30 µM	> 100		> 100	0.649 µM and 0.657 µM and 0.141 µM			> 100		> 100 µM and 25.2 µM	15.9 µM and 19.9 µM	27.4 µM and 13.5 µM		27.7 µM and 12.8 µM	172 nM and 102 nM	3.02		12.1		11.3 µM and 8.48 µM
